Like-named read-outs stand apart in the source and are kept apart here. Bridge positions count the residues as written; N and C are the ends. Square brackets hold non-standard residues; d marks the D form. Peptide text beside a SMILES is read from it. * marks the point of attachment. Decanoyl(3,6,9-trioxa) = COCCOCCOCC(=O)*; 2Nal = N[C@@H](Cc1ccc2ccccc2c1)C(=O)O; Cit = NC(=O)NCCC[C@H](N)C(=O)O; Dab = NCC[C@H](N)C(=O)O; Dap = NC[C@H](N)C(=O)O

12 molecules from US8895695B2, “Template-fixed beta-hairpin peptidomimetics with CXCR4 antagonizing activity” (priority 2003, dated 2014) can be followed below.

Data set [1] deals with CXCR4 (Homo sapiens, UniProt P61073). Nature of the data set: Ca2+-assay method 2 (Flexstation, SDF-1 induced calcium mobilization). Type of data set: cell-based. On the set-up: expressed in transfected cells; host or cells: mouse pre-B cell line 300-19. As to conditions: method 2 (Ex. 54-160), mouse pre-B cell line 300-19 with human CXCR4, 10 nM SDF-1. On the procedure: 2.2. Ca^2+-Assay: CXCR4-Antagonizing Activity of the Peptides.
The cells were batch loaded with the Calcium 3 Assay kit (Molecular Devices) in assay buffer (Hanks Balanced salt solution, HBSS, 20 mM HEPES, pH 7.4, 0.1% BSA) for 1 h at room temperature and then 200,000 labeled cells were dispensed into black 96 well assays plates (Costar No. 3603). A 20-fold concentrated solution of peptide in assay buffer was added to the cells and the whole plate was centrifuged to settle the cells to the bottom of the wells. Calcium mobilization induced by 10 nM stromal-derived factor-1 (SDF-1) was measured in the Flexstation 384 (excitation, 485 nM; emission, 525 nM) for 90 seconds. A maximal change in fluorescence response above baseline was used to calculate antagonist activity. The data for dose response curves (antagonist concentration versus % maximum response) were fitted to a four parameter logistic equation using SoftmaxPro 4.6 (Molecular Devices), from which IC50% values were calculated.

A short description of data set [2]: in vitro. As to conditions: human.
Experimental: Each peptide concentration was assayed in triplicate. […] Wells were then washed once with PBS and subsequently 100 μl MTT reagent (0.5 mg/mL in medium RPMI1640 and, respectively, DMEM) was added to the wells. This was incubated at 37° C. for 2 hours and subsequently the medium was aspirated and 100 μl isopropanol was added to each well. […] For each concentration averages were calculated from triplicates. The percentage of growth was calculated as follows: (OD595peptide-OD595Tz-OD595Empty well)/(OD595Tz-OD595Empty well)×100% and was plotted for each peptide concentration.
‘CCR5’ cells were cultured in DMEM medium with 4500 mg/ml glucose, 10% fetal bovine serum (FBS), supplemented with 50 U/ml Penicillin and 50 μg/ml Streptomycin (Pen/Strept.). Hut/4-3 cells were maintained in RPMI medium, 10% FBS, supplemented with Pen/Strept. and 10 mM HEPES. HELA cells and CCRF-CEM cells were maintained in RPMI1640 plus 5% FBS, Pen/Strept and 2 mM L-Glutamine. Cos-7 cells were grown in DMEM medium with 4500 mg/ml glucose supplemented with 10% FCS, Pen/Strept. and 2 mM L-Glutamine. All cell lines were grown at 37° C. at 5% CO2.
Data set [3] deals with human red blood cells (hRBC). As to the kind of experiment: Hemolysis. Type of data set: cell-based. On the procedure:
The peptides were tested for their hemolytic activity against human red blood cells (hRBC). Fresh hRBC were washed three times with phosphate buffered saline (PBS) by centrifugation for 10 min at 2000×g. Peptides at a concentration of 100 μM were incubated with 20% v/v hRBC for 1 hour at 37° C. The final erythrocyte concentration was approximately 0.9×10^9 cells per ml. A value of 0% resp. 100% cell lysis was determined by incubation of the hRBC in the presence of PBS alone and respectively 0.1% Triton X-100 in H2O. The samples were centrifuged and the supernatant was 20-fold diluted in PBS buffer and the optical density (OD) of the sample at […] was measured. The 100% lyses value (OD540H2O) gave an OD540 of approximately 1.3-1.8. Percent hemolysis was calculated as follows: (OD540peptide/OD540H2O)×100%.

The mark [4] stands for this setting: read-out: IC50 (nM) Ca^2+ assay.
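Throughout, for GI50: MTT reduction read as absorbance at 595 nm, blank-corrected and expressed as percent growth relative to the time-zero cell reading, triplicate wells per concentration.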

Chain of CXCR4 (P61073 whole entry): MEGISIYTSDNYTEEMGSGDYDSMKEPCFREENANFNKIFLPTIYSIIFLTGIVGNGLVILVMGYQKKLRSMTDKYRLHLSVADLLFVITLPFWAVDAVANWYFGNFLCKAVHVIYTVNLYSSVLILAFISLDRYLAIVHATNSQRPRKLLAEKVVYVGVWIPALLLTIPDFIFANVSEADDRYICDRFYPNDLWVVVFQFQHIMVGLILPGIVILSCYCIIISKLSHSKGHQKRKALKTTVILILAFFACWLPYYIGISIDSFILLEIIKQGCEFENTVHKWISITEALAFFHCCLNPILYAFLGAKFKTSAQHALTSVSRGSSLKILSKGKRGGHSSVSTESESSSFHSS

The term IC50 denotes the concentration needed to halve the response being measured. As a reminder, the GI50 is the concentration at which growth is held to half of that of the control. Lower therefore signals greater sensitivity of the cells. As for `C[C@@H](O)[C@@H]1NC(=O)[C@H]2CCCN2C(=O)CNC(=O)[C@H](CCCNC(=N)N)NC(=O)[C@@H]2CSSC[C@H](NC(=O)[C@H](Cc3ccc4ccccc4c3)NC(=O)[C@H](CCCNC(=N)N)NC1=O)C(=O)N[C@@H](Cc1ccc(O)cc1)C(=O)N[C@@H](CCC(N)=O)C(=O)N[C@@H](CCCCN)C(=O)N1CCC[C@@H]1C(=O)N1CCC[C@H]1C(=O)N[C@@H](Cc1ccc(O)cc1)C(=O)N[C@@H](CCCNC(=N)N)C(=O)N[C@@H](CCCNC(N)=O)C(=O)N2` [Ex. 56] (cyclo(YR[Cit]CRG[dP]TR[2Nal]CYQK[dP]P); disulfide 4-11), in data set [1] (setting [4]), the half-maximal inhibitory concentration (IC50) came to 0.74 nM. The molecule further yielded a GI50 at 48 h in data set [2] of 60000 nM.

Regarding `N=C(N)NCCC[C@@H]1NC(=O)[C@H](CCCNC(=N)N)NC(=O)[C@H]2CCCN2C(=O)CNC(=O)[C@H](CCN)NC(=O)[C@@H]2CSSC[C@H](NC(=O)[C@H](Cc3c[nH]c4ccccc34)NC1=O)C(=O)N[C@@H](Cc1ccc(O)cc1)C(=O)N[C@@H](CCC(N)=O)C(=O)N[C@@H](CCCCN)C(=O)N1CCC[C@@H]1C(=O)N1CCC[C@H]1C(=O)N[C@@H](Cc1ccc(O)cc1)C(=O)N[C@@H](CCCNC(=N)N)C(=O)N[C@@H](CCCNC(N)=O)C(=O)N2` [Ex. 111] (cyclo(YR[Cit]C[Dab]G[dP]RRWCYQK[dP]P); disulfide 4-11), the Hemolysis at 100 μM in data set [3] is 0%. The GI50 at 48 h in data set [2] is > 100000 nM.

Molecule `N=C(N)NCCC[C@@H]1NC(=O)[C@@H]2CSSC[C@H](NC(=O)[C@H](Cc3ccc4ccccc4c3)NC(=O)[C@H](CCCNC(=N)N)NC(=O)[C@H](CCCNC(=N)N)NC(=O)[C@H]3CCCN3C(=O)CNC1=O)C(=O)N[C@@H](Cc1ccc(O)cc1)C(=O)N[C@@H](CCC(N)=O)C(=O)N[C@@H](CCCCN)C(=O)N1CCC[C@@H]1C(=O)N1CCC[C@H]1C(=O)N[C@@H](Cc1ccc(O)cc1)C(=O)N[C@@H](CCCNC(=N)N)C(=O)N[C@@H](CCCNC(N)=O)C(=O)N2` [Ex. 115] (cyclo(RR[2Nal]CYQK[dP]PYR[Cit]CRG[dP]); disulfide 4-13) registered a Hemolysis at 100 μM in data set [3] of 0.1%. The IC50 in data set [1] (setting [4]) is 2.7 nM.

Consider `N=C(N)NCCC[C@@H]1NC(=O)[C@@H]2CSSC[C@H](NC(=O)[C@H](Cc3c[nH]c4ccccc34)NC(=O)[C@H](CCCNC(=N)N)NC(=O)[C@H](CCCNC(=N)N)NC(=O)[C@H]3CCCN3C(=O)CNC1=O)C(=O)N[C@@H](Cc1ccc(O)cc1)C(=O)N[C@@H](CCCNC(N)=O)C(=O)N[C@@H](CCCCN)C(=O)N1CCC[C@@H]1C(=O)N1CCC[C@H]1C(=O)N[C@@H](Cc1ccc(O)cc1)C(=O)N[C@@H](CCCNC(=N)N)C(=O)N[C@@H](CCCNC(N)=O)C(=O)N2` [Ex. 128] (cyclo(YR[Cit]CRG[dP]RRWCY[Cit]K[dP]P); disulfide 4-11), for which, in data set [1] (setting [4]), the IC50 was 4.5 nM.

`N=C(N)NCCC[C@@H]1NC(=O)[C@@H]2CSSC[C@H](NC(=O)[C@H](Cc3ccc4ccccc4c3)NC(=O)[C@H](CCCNC(=N)N)NC(=O)[C@H](CCCNC(=N)N)NC(=O)[C@H]3CCCN3C(=O)CNC1=O)C(=O)N[C@@H](Cc1ccc(O)cc1)C(=O)N[C@@H](CCC(N)=O)C(=O)N[C@@H](CCCCN)C(=O)N1CCC[C@@H]1C(=O)N1CCC[C@H]1C(=O)N[C@@H](Cc1ccc(O)cc1)C(=O)N[C@@H](CCCNC(=N)N)C(=O)N[C@@H](CCCNC(N)=O)C(=O)N2` [Ex. 132] (cyclo(RR[2Nal]CYQK[dP]PYR[Cit]CRG[dP]); disulfide 4-13) gave a Hemolysis at 100 μM in data set [3] of 0%. This molecule had a concentration for 50% growth inhibition (GI50) at 48 h in data set [2] of 76000 nM.

Take `N=C(N)NCCC[C@@H]1NC(=O)[C@@H]2CSSC[C@H](NC(=O)[C@H](Cc3ccc4ccccc4c3)NC(=O)[C@H](CCCNC(=N)N)NC(=O)[C@H](CN)NC(=O)[C@H]3CCCN3C(=O)CNC1=O)C(=O)N[C@@H](Cc1ccc(O)cc1)C(=O)N[C@@H](CCCNC(N)=O)C(=O)N[C@@H](CCCCN)C(=O)N1CCC[C@@H]1C(=O)N1CCC[C@H]1C(=O)N[C@@H](Cc1ccc(O)cc1)C(=O)N[C@@H](CCCNC(=N)N)C(=O)N[C@@H](CCCNC(N)=O)C(=O)N2` [Ex. 135] (cyclo(YR[Cit]CRG[dP][Dap]R[2Nal]CY[Cit]K[dP]P); disulfide 4-11): the Hemolysis at 100 μM in data set [3] was determined as 0.1%. It took 30000 nM to inhibit growth in data set [2] by half (GI50 at 48 h).

Take `COCCOCCOCC(=O)NCC[C@@H]1NC(=O)[C@H]2CCCN2C(=O)CNC(=O)[C@H](CCCNC(=N)N)NC(=O)[C@@H]2CSSC[C@H](NC(=O)[C@H](Cc3c[nH]c4ccccc34)NC(=O)[C@H](CCCNC(=N)N)NC1=O)C(=O)N[C@@H](Cc1ccc(O)cc1)C(=O)N[C@@H](CCCNC(N)=O)C(=O)N[C@@H](CCCCN)C(=O)N1CCC[C@@H]1C(=O)N1CCC[C@H]1C(=O)N[C@@H](Cc1ccc(O)cc1)C(=O)N[C@@H](CCCNC(=N)N)C(=O)N[C@@H](CCCNC(N)=O)C(=O)N2` [Ex. 142] (cyclo(YR[Cit]CRG[dP][Dab](Decanoyl(3,6,9-trioxa))RWCY[Cit]K[dP]P); disulfide 4-11): in data set [1] (IC50 (nM) Ca^2+ assay), the IC50 came out at 96.9 nM.

In the case of `CC(C)C[C@@H]1NC(=O)[C@@H]2CCCN2C(=O)[C@H]2CCCN2C(=O)[C@H](CCCCN)NC(=O)[C@H](CCC(N)=O)NC(=O)[C@H](Cc2ccc(O)cc2)NC(=O)[C@@H]2CSSC[C@H](NC(=O)[C@H](CCCNC(N)=O)NC(=O)[C@H](CCCNC(=N)N)NC1=O)C(=O)N[C@@H](CCCNC(=N)N)C(=O)NCC(=O)N1CCC[C@@H]1C(=O)N[C@@H](CCCNC(=N)N)C(=O)N[C@@H](CCCNC(=N)N)C(=O)N[C@@H](Cc1ccc3ccccc3c1)C(=O)N2` [Ex. 144] (cyclo(LR[Cit]CRG[dP]RR[2Nal]CYQK[dP]P); disulfide 4-11), the half-maximal inhibitory concentration (IC50) in data set [1] (setting [4]) came to 0.18 nM.

Take `C[C@@H](O)[C@@H]1NC(=O)[C@H](CCCNC(=N)N)NC(=O)[C@H](Cc2ccc(O)cc2)NC(=O)[C@@H]2CCCN2C(=O)[C@H]2CCCN2C(=O)[C@H](CCCCN)NC(=O)[C@H](CCCNC(N)=O)NC(=O)[C@H](Cc2ccc(O)cc2)NC(=O)[C@@H]2CSSC[C@H](NC1=O)C(=O)N[C@@H](CCCNC(=N)N)C(=O)NCC(=O)N1CCC[C@@H]1C(=O)N[C@@H](CCCNC(=N)N)C(=O)N[C@@H](CCCNC(=N)N)C(=O)N[C@@H](Cc1ccc(O)cc1)C(=O)N2` [Ex. 146] (cyclo(YRTCRG[dP]RRYCY[Cit]K[dP]P); disulfide 4-11): in data set [1] (setting [4]), the 50% inhibitory concentration (IC50) worked out at 0.24 nM.

With `N=C(N)NCCC[C@@H]1NC(=O)[C@@H]2CSSC[C@H](NC(=O)[C@H](Cc3ccc4ccccc4c3)NC(=O)[C@H](CCCNC(=N)N)NC(=O)[C@H](CCCNC(=N)N)NC(=O)[C@H]3CCCN3C(=O)CNC1=O)C(=O)N[C@@H](Cc1ccc(O)cc1)C(=O)N[C@@H](CCCNC(N)=O)C(=O)N[C@@H](CCCCN)C(=O)N[C@H]1CSSC[C@H](NC(=O)[C@H](Cc3ccc(O)cc3)NC(=O)CNC(=O)[C@H](CCCCN)NC(=O)[C@H](Cc3ccc(O)cc3)NC1=O)C(=O)N[C@@H](Cc1ccc(O)cc1)C(=O)N[C@@H](CCCNC(=N)N)C(=O)N[C@@H](CCCNC(N)=O)C(=O)N2` [Ex. 154] (cyclo([2Nal]CY[Cit]KCYKGYCYR[Cit]CRG[dP]RR); disulfide 2-15, 6-11), in data set [1] (IC50 (nM) Ca^2+ assay), the IC50 amounted to 9.3 nM.

On to `N=C(N)NCCC[C@@H]1NC(=O)[C@@H]2CSSC[C@H](NC(=O)[C@H](Cc3c[nH]c4ccccc34)NC(=O)[C@H](CCCNC(=N)N)NC(=O)[C@H](CCCNC(=N)N)NC(=O)[C@H]3CCCN3C(=O)CNC1=O)C(=O)N[C@@H](Cc1ccc(O)cc1)C(=O)N[C@@H](CCC(N)=O)C(=O)N[C@@H](CCCCN)C(=O)N[C@H]1CSSC[C@H](NC(=O)[C@H](Cc3ccc(O)cc3)NC(=O)CNC(=O)[C@H](CCCCN)NC(=O)[C@H](Cc3ccc(O)cc3)NC1=O)C(=O)N[C@@H](Cc1ccc(O)cc1)C(=O)N[C@@H](CCCNC(=N)N)C(=O)N[C@@H](CCCNC(N)=O)C(=O)N2` [Ex. 155] (cyclo(CRG[dP]RRWCYQKCYKGYCYR[Cit]); disulfide 1-8, 12-17), for which the half-inhibitory concentration (IC50) in data set [1] (IC50 (nM) Ca^2+ assay) turned out to be 0.46 nM.

With `N=C(N)NCCC[C@@H]1NC(=O)[C@@H]2CSSC[C@H](NC(=O)[C@H](Cc3c[nH]c4ccccc34)NC(=O)[C@H](CCCNC(=N)N)NC(=O)[C@H](CCCNC(=N)N)NC(=O)[C@H]3CCCN3C(=O)CNC1=O)C(=O)N[C@@H](Cc1ccc(O)cc1)C(=O)N[C@@H](CCCNC(=N)N)C(=O)N[C@@H](CCCCN)C(=O)N[C@H]1CSSC[C@H](NC(=O)[C@H](Cc3ccc(O)cc3)NC(=O)CNC(=O)[C@H](CCCCN)NC(=O)[C@H](Cc3ccc(O)cc3)NC1=O)C(=O)N[C@@H](Cc1ccc(O)cc1)C(=O)N[C@@H](CCCNC(=N)N)C(=O)N[C@@H](CCCCN)C(=O)N2` [Ex. 160] (cyclo(CRG[dP]RRWCYRKCYKGYCYRK); disulfide 1-8, 12-17), the IC50 in data set [1] (IC50 (nM) Ca^2+ assay) is 0.38 nM.
